Assay [1] addresses T1, POLD1 (p125, catalytic subunit of Polδ) (Xenopus laevis, UniProt Q642R8).
T1 construct: gene pold1.L
T1 sequence (Q642R8 1-1109): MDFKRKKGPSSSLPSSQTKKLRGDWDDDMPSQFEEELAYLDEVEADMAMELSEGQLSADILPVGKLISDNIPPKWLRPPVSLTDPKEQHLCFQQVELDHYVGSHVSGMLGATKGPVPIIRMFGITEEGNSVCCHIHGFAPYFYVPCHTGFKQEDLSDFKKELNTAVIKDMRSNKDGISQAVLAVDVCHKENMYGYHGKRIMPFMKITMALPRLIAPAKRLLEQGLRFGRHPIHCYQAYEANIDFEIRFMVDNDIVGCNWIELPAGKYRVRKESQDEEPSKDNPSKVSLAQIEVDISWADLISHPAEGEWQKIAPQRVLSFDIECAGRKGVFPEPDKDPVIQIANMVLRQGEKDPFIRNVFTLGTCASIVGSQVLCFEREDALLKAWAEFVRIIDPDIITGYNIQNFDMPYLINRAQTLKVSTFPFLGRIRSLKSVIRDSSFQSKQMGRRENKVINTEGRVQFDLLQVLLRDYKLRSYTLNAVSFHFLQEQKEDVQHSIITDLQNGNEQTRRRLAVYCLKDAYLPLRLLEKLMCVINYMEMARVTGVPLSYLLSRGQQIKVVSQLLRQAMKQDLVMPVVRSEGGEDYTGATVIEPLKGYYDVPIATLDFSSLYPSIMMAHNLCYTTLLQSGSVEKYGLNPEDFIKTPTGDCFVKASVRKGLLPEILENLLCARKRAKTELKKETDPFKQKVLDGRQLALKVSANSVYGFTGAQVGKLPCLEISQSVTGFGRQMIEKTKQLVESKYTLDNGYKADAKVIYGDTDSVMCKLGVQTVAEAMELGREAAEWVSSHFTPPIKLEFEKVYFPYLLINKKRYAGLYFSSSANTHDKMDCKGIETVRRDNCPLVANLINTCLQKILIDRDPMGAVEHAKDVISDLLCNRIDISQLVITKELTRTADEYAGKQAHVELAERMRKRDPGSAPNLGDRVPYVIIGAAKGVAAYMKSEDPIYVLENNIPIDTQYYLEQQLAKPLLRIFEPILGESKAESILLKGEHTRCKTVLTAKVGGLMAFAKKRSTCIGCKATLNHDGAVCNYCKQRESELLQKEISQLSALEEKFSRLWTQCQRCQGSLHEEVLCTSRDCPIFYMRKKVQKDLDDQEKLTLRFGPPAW
Briefly: CETSA in Xenopus egg extracts ([…] BKC), western blot. Format: cell-free. For orientation: Immunoblotting shows a protein as a band on a membrane.

In assay [2] the target is POLE (catalytic subunit of DNA polymerase ε) (Homo sapiens, UniProt Q07864). Briefly: CETSA in MCF-7 cells ([…] BKC), western blot. Format: cell-based.
Chain of POLE (catalytic subunit of DNA polymerase ε) (Q07864 whole entry): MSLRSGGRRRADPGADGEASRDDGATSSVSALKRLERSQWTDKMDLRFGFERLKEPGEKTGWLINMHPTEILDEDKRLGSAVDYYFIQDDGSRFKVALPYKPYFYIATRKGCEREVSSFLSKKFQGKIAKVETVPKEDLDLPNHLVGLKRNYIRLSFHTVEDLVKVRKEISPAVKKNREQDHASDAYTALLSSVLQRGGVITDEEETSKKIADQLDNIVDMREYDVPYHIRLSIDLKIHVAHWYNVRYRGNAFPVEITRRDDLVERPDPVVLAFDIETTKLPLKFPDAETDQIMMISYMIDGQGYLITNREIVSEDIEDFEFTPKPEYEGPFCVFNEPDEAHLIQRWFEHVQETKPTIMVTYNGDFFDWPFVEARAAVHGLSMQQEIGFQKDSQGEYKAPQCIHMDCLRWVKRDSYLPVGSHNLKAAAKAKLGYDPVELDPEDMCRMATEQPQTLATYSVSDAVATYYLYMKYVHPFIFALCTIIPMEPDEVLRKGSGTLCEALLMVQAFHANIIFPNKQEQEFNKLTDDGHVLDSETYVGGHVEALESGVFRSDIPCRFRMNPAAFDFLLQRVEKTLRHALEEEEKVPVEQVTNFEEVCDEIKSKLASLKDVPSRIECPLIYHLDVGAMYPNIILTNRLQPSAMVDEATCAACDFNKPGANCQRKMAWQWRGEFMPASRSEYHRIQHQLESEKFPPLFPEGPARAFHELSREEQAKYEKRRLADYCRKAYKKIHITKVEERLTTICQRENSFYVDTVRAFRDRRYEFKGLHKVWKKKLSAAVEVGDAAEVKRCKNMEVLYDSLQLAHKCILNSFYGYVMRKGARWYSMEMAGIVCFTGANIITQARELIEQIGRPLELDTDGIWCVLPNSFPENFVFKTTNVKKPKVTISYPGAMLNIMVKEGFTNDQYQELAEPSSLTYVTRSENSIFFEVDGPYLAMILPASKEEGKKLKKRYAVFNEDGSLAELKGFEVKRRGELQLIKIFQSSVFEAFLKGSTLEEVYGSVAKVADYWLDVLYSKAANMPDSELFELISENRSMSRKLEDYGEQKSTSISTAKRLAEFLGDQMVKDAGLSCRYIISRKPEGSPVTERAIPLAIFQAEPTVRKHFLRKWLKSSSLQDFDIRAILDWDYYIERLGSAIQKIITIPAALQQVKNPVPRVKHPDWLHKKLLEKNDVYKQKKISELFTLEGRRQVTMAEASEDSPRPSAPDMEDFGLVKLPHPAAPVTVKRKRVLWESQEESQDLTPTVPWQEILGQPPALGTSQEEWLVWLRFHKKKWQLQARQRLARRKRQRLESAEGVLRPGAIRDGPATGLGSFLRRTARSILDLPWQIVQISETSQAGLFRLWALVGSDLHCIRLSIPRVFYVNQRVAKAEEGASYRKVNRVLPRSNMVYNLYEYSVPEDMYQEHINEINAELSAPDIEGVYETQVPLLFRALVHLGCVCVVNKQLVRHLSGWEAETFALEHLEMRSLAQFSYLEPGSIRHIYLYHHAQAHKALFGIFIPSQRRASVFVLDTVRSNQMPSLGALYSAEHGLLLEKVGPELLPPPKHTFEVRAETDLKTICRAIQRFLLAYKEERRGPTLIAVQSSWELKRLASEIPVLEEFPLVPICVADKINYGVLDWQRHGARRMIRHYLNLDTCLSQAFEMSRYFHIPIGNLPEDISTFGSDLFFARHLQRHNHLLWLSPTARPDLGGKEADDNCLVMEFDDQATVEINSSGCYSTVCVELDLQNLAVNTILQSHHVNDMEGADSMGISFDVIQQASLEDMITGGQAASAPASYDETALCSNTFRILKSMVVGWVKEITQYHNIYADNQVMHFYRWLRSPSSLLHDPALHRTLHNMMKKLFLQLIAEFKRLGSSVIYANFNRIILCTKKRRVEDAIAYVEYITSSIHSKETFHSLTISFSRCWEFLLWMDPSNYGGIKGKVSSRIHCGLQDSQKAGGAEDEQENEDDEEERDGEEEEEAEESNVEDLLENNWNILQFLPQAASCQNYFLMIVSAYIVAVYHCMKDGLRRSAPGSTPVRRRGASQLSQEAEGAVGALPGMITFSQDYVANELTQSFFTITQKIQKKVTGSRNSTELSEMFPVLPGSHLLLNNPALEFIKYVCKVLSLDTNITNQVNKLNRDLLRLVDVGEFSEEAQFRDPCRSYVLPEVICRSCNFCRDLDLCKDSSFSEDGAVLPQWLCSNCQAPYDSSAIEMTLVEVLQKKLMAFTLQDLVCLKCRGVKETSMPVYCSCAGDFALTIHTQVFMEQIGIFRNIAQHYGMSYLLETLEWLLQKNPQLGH
Assay [3] addresses T2, POLD1 (catalytic subunit of DNA polymerase δ) (Homo sapiens, UniProt P28340).
T2 sequence (P28340 1-1107): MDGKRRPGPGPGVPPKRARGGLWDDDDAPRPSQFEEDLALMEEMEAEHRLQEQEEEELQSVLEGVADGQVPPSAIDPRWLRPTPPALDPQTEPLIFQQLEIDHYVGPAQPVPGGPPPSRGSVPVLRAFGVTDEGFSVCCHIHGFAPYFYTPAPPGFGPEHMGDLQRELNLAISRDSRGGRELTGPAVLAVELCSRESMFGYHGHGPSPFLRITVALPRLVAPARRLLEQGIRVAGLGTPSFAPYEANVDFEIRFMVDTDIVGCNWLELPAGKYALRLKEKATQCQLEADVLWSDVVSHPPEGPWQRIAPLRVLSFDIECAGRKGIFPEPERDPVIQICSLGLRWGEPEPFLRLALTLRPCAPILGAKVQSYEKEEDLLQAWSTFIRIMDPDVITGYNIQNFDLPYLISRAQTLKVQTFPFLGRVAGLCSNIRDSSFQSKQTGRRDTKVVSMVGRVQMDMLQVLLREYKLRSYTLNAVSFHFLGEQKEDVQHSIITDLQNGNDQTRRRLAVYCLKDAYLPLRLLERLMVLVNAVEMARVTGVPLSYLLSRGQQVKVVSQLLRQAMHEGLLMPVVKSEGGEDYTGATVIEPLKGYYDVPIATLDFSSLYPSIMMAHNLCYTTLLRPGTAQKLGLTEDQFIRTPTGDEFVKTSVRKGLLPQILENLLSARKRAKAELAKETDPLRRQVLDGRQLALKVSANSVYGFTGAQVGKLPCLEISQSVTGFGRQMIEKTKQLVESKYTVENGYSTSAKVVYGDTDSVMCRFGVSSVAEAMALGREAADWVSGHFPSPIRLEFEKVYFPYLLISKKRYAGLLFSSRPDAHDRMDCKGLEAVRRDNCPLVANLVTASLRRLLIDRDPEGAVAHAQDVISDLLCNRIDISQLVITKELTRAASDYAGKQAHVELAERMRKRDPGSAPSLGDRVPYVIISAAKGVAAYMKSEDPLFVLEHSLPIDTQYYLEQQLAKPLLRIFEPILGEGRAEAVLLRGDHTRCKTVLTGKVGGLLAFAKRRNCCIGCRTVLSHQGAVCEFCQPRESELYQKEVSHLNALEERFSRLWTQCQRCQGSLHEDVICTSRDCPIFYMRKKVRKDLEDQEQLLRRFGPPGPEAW
The assay can be described thus: CETSA in MCF-7 cells ([…] BKC), western blot. Format: cell-based.

For a further assay, the target named is T3, Aurora-B (Homo sapiens, UniProt Q96GD4).
T3 construct: gene AURKB
T3 sequence (Q96GD4 whole entry): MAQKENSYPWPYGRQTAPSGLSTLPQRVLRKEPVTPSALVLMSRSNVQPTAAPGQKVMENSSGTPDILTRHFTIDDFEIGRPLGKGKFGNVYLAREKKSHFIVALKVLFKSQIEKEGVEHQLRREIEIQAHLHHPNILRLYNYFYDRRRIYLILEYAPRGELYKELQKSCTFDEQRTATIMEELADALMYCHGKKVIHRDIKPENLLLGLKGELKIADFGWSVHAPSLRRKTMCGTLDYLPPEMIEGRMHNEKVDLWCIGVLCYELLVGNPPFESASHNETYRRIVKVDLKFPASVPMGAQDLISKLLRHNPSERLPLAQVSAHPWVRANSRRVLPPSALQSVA
The assay can be described thus: radiometric in vitro kinase assay (Eurofins KinaseProfiler). Format: biochemical.

The target of another assay is T4, CHK2 (Homo sapiens, UniProt O96017).
T4 construct: gene CHEK2
T4 sequence (O96017 whole entry): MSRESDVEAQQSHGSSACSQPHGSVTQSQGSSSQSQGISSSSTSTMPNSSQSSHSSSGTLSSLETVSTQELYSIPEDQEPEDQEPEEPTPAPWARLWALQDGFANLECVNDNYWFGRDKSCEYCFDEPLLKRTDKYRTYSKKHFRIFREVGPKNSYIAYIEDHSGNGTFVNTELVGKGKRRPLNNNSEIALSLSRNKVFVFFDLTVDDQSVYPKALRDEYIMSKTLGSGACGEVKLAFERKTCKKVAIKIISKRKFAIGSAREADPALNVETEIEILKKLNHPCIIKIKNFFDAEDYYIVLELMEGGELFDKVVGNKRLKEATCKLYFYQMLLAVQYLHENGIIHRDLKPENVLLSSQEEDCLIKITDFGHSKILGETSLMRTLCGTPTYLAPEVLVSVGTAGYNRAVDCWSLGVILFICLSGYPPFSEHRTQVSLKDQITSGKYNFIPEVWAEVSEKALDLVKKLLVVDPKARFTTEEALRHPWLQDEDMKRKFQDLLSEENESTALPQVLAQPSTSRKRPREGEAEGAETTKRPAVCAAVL
The assay can be described thus: radiometric in vitro kinase assay (Eurofins KinaseProfiler); also CETSA in MCF-7 cells. Format: biochemical.

A further assay deals with T5, JNK3 (Homo sapiens, UniProt P53779).
T5 construct: gene MAPK10
T5 sequence (P53779 whole entry): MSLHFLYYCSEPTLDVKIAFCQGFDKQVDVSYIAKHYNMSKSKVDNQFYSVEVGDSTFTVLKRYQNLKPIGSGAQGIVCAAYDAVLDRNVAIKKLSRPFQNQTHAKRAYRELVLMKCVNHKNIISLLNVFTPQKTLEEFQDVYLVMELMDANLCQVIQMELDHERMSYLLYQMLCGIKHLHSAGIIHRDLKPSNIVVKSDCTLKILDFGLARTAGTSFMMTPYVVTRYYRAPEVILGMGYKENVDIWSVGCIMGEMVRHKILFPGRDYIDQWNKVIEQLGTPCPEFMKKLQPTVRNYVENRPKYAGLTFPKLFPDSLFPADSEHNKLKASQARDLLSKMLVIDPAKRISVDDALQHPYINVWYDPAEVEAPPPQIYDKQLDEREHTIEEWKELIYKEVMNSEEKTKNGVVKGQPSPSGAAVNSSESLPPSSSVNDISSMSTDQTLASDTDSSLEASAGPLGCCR
Briefly: radiometric in vitro kinase assay (Eurofins KinaseProfiler). Format: biochemical.

Another assay has as its target T6, Aurora-A (Homo sapiens, UniProt O14965).
T6 construct: gene AURKA
T6 sequence (O14965 1-403): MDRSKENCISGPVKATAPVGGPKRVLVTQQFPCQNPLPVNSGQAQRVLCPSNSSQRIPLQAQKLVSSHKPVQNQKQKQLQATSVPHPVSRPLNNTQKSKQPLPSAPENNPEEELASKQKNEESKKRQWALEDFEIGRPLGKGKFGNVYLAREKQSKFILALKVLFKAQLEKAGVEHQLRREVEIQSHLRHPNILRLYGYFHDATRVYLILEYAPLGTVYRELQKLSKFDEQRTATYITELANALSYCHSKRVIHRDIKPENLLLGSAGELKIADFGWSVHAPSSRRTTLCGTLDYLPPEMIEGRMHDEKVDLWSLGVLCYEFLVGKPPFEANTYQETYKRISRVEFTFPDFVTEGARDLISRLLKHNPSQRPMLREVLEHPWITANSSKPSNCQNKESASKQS
The assay is described as above. Format: biochemical.

A further assay has as its target AKT1/PKBα (Homo sapiens, UniProt P31749). The description is as above. Format: biochemical.

A word on the IC50: it is the concentration needed to halve the response being measured. Low values mean higher potency, high ones lower potency.

Chain of AKT1/PKBα (P31749 whole entry): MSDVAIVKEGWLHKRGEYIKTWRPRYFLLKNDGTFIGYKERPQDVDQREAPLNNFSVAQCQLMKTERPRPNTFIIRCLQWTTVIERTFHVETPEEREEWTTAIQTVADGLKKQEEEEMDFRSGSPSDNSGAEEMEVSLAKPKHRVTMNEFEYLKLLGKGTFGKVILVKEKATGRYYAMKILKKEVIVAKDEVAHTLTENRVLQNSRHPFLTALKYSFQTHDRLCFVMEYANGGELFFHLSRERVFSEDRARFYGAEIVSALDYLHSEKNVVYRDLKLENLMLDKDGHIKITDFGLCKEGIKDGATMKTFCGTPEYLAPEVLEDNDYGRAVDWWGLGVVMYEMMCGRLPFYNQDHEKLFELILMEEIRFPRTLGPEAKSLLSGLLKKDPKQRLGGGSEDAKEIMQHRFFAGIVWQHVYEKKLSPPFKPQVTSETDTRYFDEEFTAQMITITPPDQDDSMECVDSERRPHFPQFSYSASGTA

For `C=C[C@@](C)(/C=C/c1ccc(O)cc1)CCC=C(C)C` [BKC, Bakuchiol], in assay [1], the “CETSA in Xenopus egg extracts (40 μM BKC), western blot” value is reported as “BKC specifically stabilize the catalytic subunit POLD1 of Polδ, but not that of the accessory subunit POLD3 in Xenopus”. Also, the “CETSA in MCF-7 cells (40 μM BKC), western blot” value in assay [2] was “BKC interacts with the catalytic subunits of Polδ and Polε in MCF-7 cells”; in assay [3], “BKC interacts with the catalytic subunits of Polδ and Polε in MCF-7 cells”.

As to `CC(C)=CCc1c(O)ccc(C(=O)/C=C/c2ccc(O)cc2)c1O` [IBC, Isobavachalcone], the IC50 on Aurora-B is 11.2 µM; on CHK2, 3.5 µM; against JNK3, 16.4 µM; against Aurora-A, 11.2 µM; against AKT1/PKBα, 56.7 µM.

Source of the values: publication PMC11785374, “Synergistic effect of inhibiting CHK2 and DNA replication on cancer cell growth” (eLife, 2025).
